Data reported in patent publication US20080207738A1, “DRUG COMBINATIONS TO TREAT DRUG RESISTANT TUMORS” (priority 2007, published 2008).

Experiment: in vitro
Conditions: human, decrease of viability of healthy lymphocytes
Source text: For the determination of relative number of viable cells before and after treatments, in most cases the MTT assay was used. This calorimetric assay is based on the ability of living cells, but not dead cells, to reduce 3-(4, 5-dimethyl thiazol-2-yl)-2, 5-diphenyltetrazolium bromide [Carmichael, J, De Graff, W. G., Gazdar, A. F., Minna, J. D. and Mitchell, J. B. (1987), “Evaluation oftetrazolium-based semiautomated calorimetric assay: Assessment of chemosensitivity testing,” Cancer Res., 47, 936-942]. For this assay, cells were plated in 96-well plates (10,000-30,000 cells in case of cultured cells, 100,000 cells in case of healthy lymphocytes, and 200,000 cells in case of chronic lymphocytic leukemia or non-Hodgkin lymphocytes) in the respective incubation media. After a 24-h resting period, the cells were treated with the test agents and then incubated (in CO2 incubator under humidified atmosphere) for 72 hours (final incubation volume, 150 μl). The MTT assay was performed both with the untreated and treated cell cultures at the conclusion of the incubation. Often, the MTT assay also was performed at the start of treatments to allow assessment of proliferation rates in the control and treated cell cultures. All data presented are the average of 4 incubations (in 4 separate wells) with the same cell population.
Peripheral lymphocytes are known to be very sensitive to chemotherapy and this sensitivity often limits the dose of chemotherapy that can be employed. In this series of experiments, the combined effects of CCcompound104 alone or in combination with CCcompound26 or CCcompound3 were determined on the viability of peripheral lymphocytes to establish doses that reduce cell viability less than 50%. As in previous experiments, the treatments were performed for 72 hours.

## C=CC[N+](CC)(CC)CC/C=C1/c2ccccc2Sc2ccc(C)cc21.[Br-] [CCcompound26, N,N-Diethyl-N-allyl-3-(2-methyl-9H-thioxanthen-9-ylidene)-propan-1-aminiumbromide]
  cytotoxicity at 72 h, 50 μM: 100%
Over 4 lymphocyte preparations
  cytotoxicity at 72 h, 1 μM: 3 to 13%
